Results from ChEMBL document CHEMBL4354856, “Discovery of 4,6-O-Thenylidene-β-d-glucopyranoside-(2″-acetamido, 3″-acetyl-di-S-5-fluorobenzothizole/5-fluorobenzoxazole)-4'-demethylepipodophyllotoxin as Potential Less Toxic Antitumor Candidate Drugs by Reducing DNA Damage and Less Inhibition of PI3K” (J Med Chem, 2020).
The source made the active and inactive calls. The rule behind the calls is not given here.

Columns and labels:
HeLa = test: Anticancer activity against human HeLa cells assessed as inhibition of cell proliferation measured after 48 hrs by MTT assay; type: functional, cell-based
HepG2 [1] = test: Anticancer activity against human HepG2 cells assessed as inhibition of cell proliferation measured after 48 hrs by MTT assay; type: functional, cell-based; settings: HepG2, 48 h
MRC5 [2] = test: Cytotoxicity against human MRC5 cells assessed as inhibition of cell proliferation measured after 48 hrs by MTT assay; type: cell-based; settings: MRC5, 48 h
L02 [3] = test: Cytotoxicity against human HL7702 cells assessed as inhibition of cell proliferation measured after 48 hrs by MTT assay; type: cell-based; settings: L02, 48 h
A549 = test: Anticancer activity against human A549 cells assessed as inhibition of cell proliferation measured after 48 hrs by MTT assay; type: functional, cell-based; settings: A549, 48 h
HMEC [4] = test: Cytotoxicity against human HMEC cells assessed as inhibition of cell proliferation measured after 48 hrs by MTT assay; type: cell-based
[5] = Cytotoxicity against human H8 cells assessed as inhibition of cell proliferation measured after 48 hrs by MTT assay; type: cell-based
MCF7 = test: Anticancer activity against human MCF7 cells assessed as inhibition of cell proliferation measured after 48 hrs by MTT assay; type: functional, cell-based; settings: MCF7, 48 h
HepG2 [6] = test: Antitumor activity against human HepG2 xenografted in BALB/c nude mouse assessed as tumor growth inhibition at 30 mg/kg, ip administered for 20 days and measured after 20 days by electronic caliper method relative to control; type: functional; settings: 480 h, read-out: TGI
L02 [7] = test: Induction of DNA damage in human HL7702 cells assessed as effect on gamma-H2AX phosphorylation at 20 uM after 24 hrs by Alexa Fluor 488 staining based fluorescence assay; type: cell-based; settings: l02, 24 h
L02 [8] = test: Genotoxicity in human HL7702 cells assessed as induction of DNA damage by measuring tail DNA at 50 uM after 24 hrs by alkaline comet assay (reference value: 3 +/- 1.1 %); type: toxicity, cell-based; settings: l02, 24 h
HepG2 [9] = test: Cell cycle arrest in human HepG2 cells assessed as accumulation at G2/M phase at 5 uM after 24 hrs by propidium staining based flow cytometry analysis; type: functional
L02 [10] = test: Induction of apoptosis in human HL7702 cells assessed as increase in BAX level at 25 uM after 30 hrs by Western blot analysis; type: cell-based; settings: l02, 30 h
L02 [11] = test: Induction of apoptosis in human HL7702 cells assessed as increase in PARP cleavage at 25 uM after 30 hrs by Western blot analysis; type: cell-based; settings: l02, 30 h
HepG2 [12] = test: Induction of apoptosis in human HepG2 cells assessed as apoptotic cells at 5 to 15 uM measured after 36 hrs by Annexin-V/propidium iodide staining based flow cytometry analysis relative to control; type: functional
MRC5 [13] = test: Cytotoxicity against human MRC5 cells assessed as inhibition of cell proliferation measured after 48 hrs by MTT assay relative to teniposide; type: cell-based; settings: mrc5, 48 h
HepG2 [14] = test: Antitumor activity against human HepG2 xenografted in BALB/c nude mouse assessed as tumor volume at 30 mg/kg, ip administered for 20 days and measured after 20 days by electronic caliper method (reference value: 960.20 +/- 32.10 mm3); type: functional
L02 [15] = test: Induction of apoptosis in human HL7702 cells assessed as apoptotic cells at 50 uM measured after 42 hrs by Annexin-V/propidium iodide staining based flow cytometry analysis relative to control; type: cell-based; settings: l02, 42 h
HepG2 [16] = test: Induction of apoptosis in human HepG2 cells assessed as apoptotic cells at 10 uM measured after 42 hrs by Annexin-V/propidium iodide staining based flow cytometry analysis relative to control; type: functional
[17] = Therapeutic index, ratio of LD50 for acute toxicity in ip dosed C57BL6 mouse assessed as mouse survival administered as single dose for 3 days and monitored for 20 days by Bliss method to ED50 for antitumor activity against human HepG2 xenografted in ip dosed BALB/c nude mouse administered for 20 days and measured after 20 days by electronic caliper method; type: organism-based; settings: in vivo, read-out: TI
[18] = Acute toxicity in C57BL6 mouse assessed as effect on body weight at 100 mg/kg, ip administered for 20 days; type: organism-based; settings: in vivo, 480 h
[19] = target: DNA topoisomerase 2-alpha (Homo sapiens) (UniProt P11388); test: Inhibition of human topoisomerase-2alpha mediated decatenation at 25 uM using kinetoplast DNA as substrate after 30 mins in presence of ATP by ethidium bromide staining-based UV imaging analysis
HepG2 [20] = test: Antitumor activity against human HepG2 xenografted in ip dosed BALB/c nude mouse administered for 20 days and measured after 20 days by electronic caliper method; type: functional; settings: 480 h
[21] = Acute toxicity in ip dosed C57BL6 mouse assessed as mouse survival administered as single dose for 3 days and monitored for 20 days by Bliss method; type: organism-based; settings: in vivo
L02 [22] = test: Cytotoxicity against human HL7702 cells assessed as inhibition of cell proliferation measured after 48 hrs by MTT assay relative to teniposide; type: cell-based; settings: l02, 48 h
[23] = target: DNA topoisomerase 2-alpha (Homo sapiens) (UniProt P11388); test: Inhibition of human topoisomerase-2alpha mediated decatenation using kinetoplast DNA as substrate after 30 mins in presence of ATP by ethidium bromide staining-based UV imaging analysis
DNA topoisomerase II [24] = target: T1, DNA topoisomerase II (Homo sapiens, UniProt P11388+Q02880); test: Poison activity at topoisomerase-2 in human HL7702 cell lysate assessed as reduction in topoisomerase-2 band depletion at 50 uM after 3 hrs by Western blot analysis; type: ADME, subcellular
L02 [25] = test: Genotoxicity in human HL7702 cells assessed as induction of DNA damage at 50 uM after 24 hrs in combination of teniposide by alkaline comet assay; type: toxicity, cell-based; settings: l02, 24 h
DNA topoisomerase II [26] = target: T1, DNA topoisomerase II; test: Poison activity at topoisomerase-2 in human HepG2 cell lysate assessed as topoisomerase-2 band depletion after 3 hrs by Western blot analysis; type: subcellular
HMEC [27] = test: Cytotoxicity against human HMEC cells assessed as inhibition of cell proliferation measured after 48 hrs by MTT assay relative to teniposide; type: cell-based
Homo sapiens = organism: Homo sapiens; test: Induction of PI3K/AKT phosphorylation in human HL7702 cells at 25 uM after 30 hrs by Western blot analysis; type: cell-based
HepG2 [28] = test: Cell cycle arrest in human HepG2 cells assessed as accumulation at G2/M phase at 15 uM after 36 hrs by propidium staining based flow cytometry analysis relative to control; type: functional
[29] = target: DNA topoisomerase 2-alpha (Homo sapiens) (UniProt P11388); test: Inhibition of human topoisomerase-2alpha mediated decatenation at 50 uM using kinetoplast DNA as substrate after 30 mins in presence of ATP by ethidium bromide staining-based UV imaging analysis relative to control
HepG2 [30] = test: Induction of DNA damage in human HepG2 cells assessed as increase in H2AX phosphorylation at 20 uM after 24 hrs by Alexa Fluor 488 staining based fluorescence assay; type: functional, cell-based
L02 [31] = test: Cell cycle arrest in human HL7702 cells assessed as accumulation at G2/M phase at 5 uM after 30 hrs by propidium staining based flow cytometry analysis relative to control; settings: l02, 30 h

DNA topoisomerase 2-alpha (Homo sapiens), sequence (P11388 whole entry): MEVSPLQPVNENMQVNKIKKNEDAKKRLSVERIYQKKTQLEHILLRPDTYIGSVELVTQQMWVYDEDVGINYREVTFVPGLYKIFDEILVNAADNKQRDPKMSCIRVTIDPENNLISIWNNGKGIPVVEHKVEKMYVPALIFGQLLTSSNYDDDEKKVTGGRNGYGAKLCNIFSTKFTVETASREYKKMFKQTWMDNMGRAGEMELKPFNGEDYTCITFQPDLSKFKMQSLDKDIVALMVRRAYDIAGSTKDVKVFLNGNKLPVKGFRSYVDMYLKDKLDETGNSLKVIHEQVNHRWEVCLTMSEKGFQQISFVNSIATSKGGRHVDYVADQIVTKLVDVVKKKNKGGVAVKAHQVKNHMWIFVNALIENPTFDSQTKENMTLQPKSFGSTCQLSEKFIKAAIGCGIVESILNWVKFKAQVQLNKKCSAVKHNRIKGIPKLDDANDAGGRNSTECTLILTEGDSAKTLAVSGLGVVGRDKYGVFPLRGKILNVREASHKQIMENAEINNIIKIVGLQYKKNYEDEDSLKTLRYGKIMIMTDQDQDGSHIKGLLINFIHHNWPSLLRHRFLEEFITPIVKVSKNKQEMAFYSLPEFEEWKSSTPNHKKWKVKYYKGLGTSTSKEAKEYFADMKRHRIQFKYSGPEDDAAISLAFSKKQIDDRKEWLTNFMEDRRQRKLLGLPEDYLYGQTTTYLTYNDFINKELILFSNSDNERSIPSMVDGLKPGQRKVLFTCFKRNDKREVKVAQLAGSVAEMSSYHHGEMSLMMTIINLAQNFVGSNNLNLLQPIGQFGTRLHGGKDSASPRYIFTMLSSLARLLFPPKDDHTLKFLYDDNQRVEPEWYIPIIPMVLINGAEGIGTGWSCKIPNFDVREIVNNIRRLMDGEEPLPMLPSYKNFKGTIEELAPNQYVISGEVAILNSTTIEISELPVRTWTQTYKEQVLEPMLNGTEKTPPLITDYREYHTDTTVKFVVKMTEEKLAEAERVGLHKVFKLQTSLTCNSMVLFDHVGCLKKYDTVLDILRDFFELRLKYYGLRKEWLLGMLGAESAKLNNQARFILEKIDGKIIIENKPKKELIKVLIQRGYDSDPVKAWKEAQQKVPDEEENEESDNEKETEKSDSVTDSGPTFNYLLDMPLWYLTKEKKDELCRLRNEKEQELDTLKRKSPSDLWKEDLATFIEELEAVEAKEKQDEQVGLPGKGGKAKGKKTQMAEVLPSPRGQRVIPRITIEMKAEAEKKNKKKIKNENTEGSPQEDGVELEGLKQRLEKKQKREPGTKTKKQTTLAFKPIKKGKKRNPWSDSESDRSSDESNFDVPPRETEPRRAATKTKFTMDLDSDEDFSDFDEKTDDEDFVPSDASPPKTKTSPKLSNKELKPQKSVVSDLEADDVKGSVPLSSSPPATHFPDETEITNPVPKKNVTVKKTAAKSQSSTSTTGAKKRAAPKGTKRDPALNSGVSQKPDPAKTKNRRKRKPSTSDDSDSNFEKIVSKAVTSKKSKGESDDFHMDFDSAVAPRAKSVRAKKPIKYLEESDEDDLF

## COc1cc([C@@H]2c3cc4c(cc3[C@@H](O[C@@H]3O[C@@H]5CO[C@@H](c6cccs6)O[C@H]5[C@H](O)[C@H]3NC(=O)CSc3nc5cc(F)ccc5o3)[C@H]3COC(=O)[C@H]23)OCO4)cc(OC)c1O
HeLa
  IC50: 158 µM
HepG2 [1]
  IC50: 121 µM
MRC5 [2]
  IC50: 133 µM
L02 [3]
  IC50: 144 µM
A549
  IC50: 122 µM
HMEC [4]
  IC50: 156 µM
[5]
  IC50: 147 µM
MCF7
  IC50: 157 µM

## COc1cc([C@@H]2c3cc4c(cc3[C@@H](O[C@@H]3O[C@@H]5CO[C@@H](c6cccs6)O[C@H]5[C@H](OC(=O)CSc5nc6cc(F)ccc6o5)[C@H]3NC(=O)CSc3nc5cc(F)ccc5o3)[C@H]3COC(=O)[C@H]23)OCO4)cc(OC)c1O
HeLa
  IC50: 155 µM
HepG2 [6]
  inhibition in vivo at 30 mg/kg: 62%
HepG2 [1]
  IC50: 11.1 µM
L02 [7]
  Activity: Toxic
L02 [8]
  Activity: 8.4%
HepG2 [9]
  Activity: inactive
L02 [10]
  Activity: Non-Toxic
L02 [11]
  Activity: Non-Toxic
MRC5 [2]
  IC50: 124 µM
HepG2 [12]
  Activity: 30 - 55%
MRC5 [13]
  fold change (FC): 10
HepG2 [14]
  Activity: 163.25 mm3
L02 [3]
  IC50: 123 µM
L02 [15]
  Activity: 30%
HepG2 [16]
  Activity: 55%
A549
  IC50: 14.9 µM
[17]
  selectivity ratio at 20 days: 4.82
[18]
  Activity: Non-Toxic
[19]
  inhibition: Active
HMEC [4]
  IC50: 125 µM
HepG2 [20]
  ED50: 34.7 mg/kg
[21]
  LD50 at 480 h: 168 mg/kg
[5]
  IC50: 123 µM
L02 [22]
  fold change (FC): 10
[23]
  inhibition: Dose-dependent effect
DNA topoisomerase II [24]
  Activity: Not Active
L02 [25]
  Activity: Toxic
DNA topoisomerase II [26]
  IC50: 124.2 µM
MCF7
  IC50: 12.3 µM
HMEC [27]
  fold change (FC): 10
Homo sapiens
  Activity: Active
HepG2 [28]
  Activity: 76%
[29]
  inhibition: 100%
HepG2 [30]
  Activity: Active
L02 [31]
  Activity: 40%

## COc1cc([C@@H]2c3cc4c(cc3[C@@H](O[C@@H]3O[C@@H]5CO[C@@H](c6cccs6)O[C@H]5[C@H](OC(=O)CSc5nc6cc(F)ccc6o5)[C@H]3OC(=O)CSc3nc5cc(F)ccc5o3)[C@H]3COC(=O)[C@H]23)OCO4)cc(OC)c1O
HeLa
  IC50: 50.3 µM
HepG2 [1]
  IC50: 15.6 µM
MRC5 [2]
  IC50: 25.4 µM
L02 [3]
  IC50: 20.4 µM
A549
  IC50: 11.5 µM
HMEC [4]
  IC50: 23.4 µM
[5]
  IC50: 20.4 µM
MCF7
  IC50: 30.5 µM

## COc1cc([C@@H]2c3cc4c(cc3[C@@H](O[C@@H]3O[C@@H]5CO[C@@H](c6cccs6)O[C@H]5[C@H](OC(=O)CSc5nc6cc(F)ccc6s5)[C@H]3OC(=O)CSc3nc5cc(F)ccc5s3)[C@H]3COC(=O)[C@H]23)OCO4)cc(OC)c1O
HeLa
  IC50: 172 µM
HepG2 [1]
  IC50: 38.4 µM
MRC5 [2]
  IC50: 25.6 µM
L02 [3]
  IC50: 22.1 µM
A549
  IC50: 118 µM
HMEC [4]
  IC50: 24.6 µM
[5]
  IC50: 20.3 µM
MCF7
  IC50: 151 µM
